The pIC50 is −log10 of the IC50, conventionally taken in molar units.

The structures appear in SMILES notation. pIC50: −log10 of the molar value. Where a name gives a salt, the structure may show the parent alone.

For the first assay, the target named is T1, human Cot/Tpl2 kinase (Homo sapiens, UniProt P41279).
T1 construct: human Cot/Tpl2 kinase construct encoding residues 30-398; 6His (N); made in house; host or cells: Sf9 insect cells (baculovirus system, BD Biosciences)
T1 sequence (P41279 30-398): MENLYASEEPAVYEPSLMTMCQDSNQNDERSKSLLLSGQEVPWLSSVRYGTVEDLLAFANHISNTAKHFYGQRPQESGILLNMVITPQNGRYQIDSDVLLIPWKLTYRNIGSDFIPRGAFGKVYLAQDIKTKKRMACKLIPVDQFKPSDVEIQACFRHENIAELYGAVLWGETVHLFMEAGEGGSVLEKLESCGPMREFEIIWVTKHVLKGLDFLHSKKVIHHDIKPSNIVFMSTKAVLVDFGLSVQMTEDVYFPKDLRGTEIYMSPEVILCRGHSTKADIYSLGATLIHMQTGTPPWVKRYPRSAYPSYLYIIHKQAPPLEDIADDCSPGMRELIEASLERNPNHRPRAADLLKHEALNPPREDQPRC
The assay can be described thus: Tpl2/Cot kinase assay, GST-MEK1 phosphorylation detected by ELISA (DELFIA Eu). Format: biochemical. Conditions: Table 1; 0.4 nM Tpl2, 35 nM GST-MEK1, 50 uM ATP, 1 h at 30° C. A general note: In an ELISA, binding on a coated surface is turned into a signal by an enzyme label.
In turn, `N#Cc1cnc2cnc(NCCN3CCNCC3)cc2c1Nc1ccc(Cc2ccccc2)cc1` [Example 25, 4-(4-benzylphenylamino)-6-(2-(piperazin-1-yl)ethylamino)-1,7-naphthyridine-3-carbonitrile, hydrochloride salt] had a pIC50 of 7.42.
`N#Cc1cnc2cnc(NCCN3CCOCC3)cc2c1Nc1ccc(C(=O)c2ccccc2)cc1` [Example 27, 4-(4-benzoylphenylamino)-6-(2-morpholinoethylamino)-1,7-naphthyridine-3-carbonitrile] had a pIC50 of 5.34.
The molecule `N#Cc1cnc2cnc(NCCN3CCOCC3)cc2c1Nc1ccc([N+](=O)[O-])cc1` [Example 88, 6-(2-morpholinoethylamino)-4-(4-nitrophenylamino)-1,7-naphthyridine-3-carbonitrile] gave a pIC50 of 5.15.
Consider `CN1CCN(CCCNc2cc3c(Nc4ccc(F)c(Cl)c4)c(C#N)cnc3cn2)CC1` [Example 45, 4-[(3-chloro-4-fluorophenyl)amino]-6-{[3-(4-methylpiperazin-1-yl)propyl]amino}-1,7-naphthyridine-3-carbonitrile], for which the pIC50 was 4.70.
As for `CCC(C)(C)Nc1cc2c(Nc3ccc(F)c(Cl)c3)c(C#N)cnc2cn1` [Example 91, 4-(3-chloro-4-fluorophenylamino)-6-(tert-pentylamino)-1,7-naphthyridine-3-carbonitrile], the pIC50 is below 4.40.
Same read-out and setting: for `N#Cc1cnc2cnc(NCc3cccnc3)cc2c1Nc1ccc(F)cc1` [Example 9, 4-(4-fluorophenylamino)-6-(pyridin-3-ylmethylamino)-1,7-naphthyridine-3-carbonitrile] the value was 5.77.
Regarding `N#Cc1cnc2cnc(NCCN3CCOCC3)cc2c1Nc1cccc(-c2ccco2)c1` [Example 80, 4-(3-(furan-2-yl)phenylamino)-6-(2-morpholinoethylamino)-1,7-naphthyridine-3-carbonitrile], the pIC50 is below 5.00.
As to `N#Cc1cnc2cnc(NCCN3CCOCC3)cc2c1Nc1ccc(F)c(F)c1` [Example 13, 4-(3,4-difluorophenylamino)-6-(2-morpholinoethylamino)-1,7-naphthryidine-3-carbonitrile], the pIC50 is 5.44.
`Cc1ccc(Nc2c(C#N)cnc3cnc(NCc4cccnc4)cc23)cc1Br` [Example 66, 4-[(3-bromo-4-methylphenyl)amino]-6-[(pyridine-3-ylmethyl)amino]-1,7-naphthyridine-3-carbonitrile] had a pIC50 below 4.40.
`Cc1cccc(Nc2c(C#N)cnc3cnc(NCc4cccnc4)cc23)c1` [Example 29, 4-(3-methylphenylamino)-6-(pyridin-3-ylmethylamino)-1,7-naphthyridine-3-carbonitrile] gave a pIC50 below 4.40.
Consider `N#Cc1cnc2cnc(NCCN3CCOCC3)cc2c1Nc1cccc([N+](=O)[O-])c1` [Example 81, 6-(2-morpholinoethylamino)-4-(3-nitrophenylamino)-1,7-naphthyridine-3-carbonitrile], for which the pIC50 is 6.57.
Molecule `N#Cc1cnc2cnc(NCc3cccnc3)cc2c1Nc1ccc(Br)cc1` [Example 17, 4-(4-bromophenylamino)-6-(pyridin-3-ylmethylamino)-1,7-naphthyridine-3-carbonitrile] gave a pIC50 below 5.00.
Consider `N#Cc1cnc2cnc(NCCN3CCOCC3)cc2c1Nc1cccc(Cl)c1` [Example 3, 4-(3-chlorophenylamino)-6-(2-morpholinoethylamino)-1,7-naphthyridine-3-carbonitrile], for which the pIC50 was 5.94.
On to `N#Cc1cnc2cnc(NCCN3CCOCC3)cc2c1Nc1ccc(Br)cc1` [Example 5, 4-(4-bromophenylamino)-6-(2-morpholinoethylamino)-1,7-naphthyridine-3-carbonitrile], for which the pIC50 is below 4.40.
With `N#Cc1cnc2cnc(NCc3cccnc3)cc2c1Nc1ccc(Sc2ccccc2)cc1` [Example 19, 4-(4-(phenylthio)phenylamino)-6-(pyridin-3-ylmethylamino)-1,7-naphthyridine-3-carbonitrile], the pIC50 was 8.05.

Staying with this assay, now noted: Table 2; additional representative compounds.
With `N#Cc1cnc2cnc(Nc3c[nH]cn3)cc2c1Nc1ccc(F)c(Cl)c1` [Example 140, 4-[(3-chloro-4-fluorophenyl)amino]-6-{[4(5)imidazolyl]amino}-1,7-naphthyridine-3-carbonitrile], the pIC50 is 7.10.

For another assay, the target named is Tpl2 (Homo sapiens, UniProt P41279).
Chain of Tpl2 (P41279 whole entry): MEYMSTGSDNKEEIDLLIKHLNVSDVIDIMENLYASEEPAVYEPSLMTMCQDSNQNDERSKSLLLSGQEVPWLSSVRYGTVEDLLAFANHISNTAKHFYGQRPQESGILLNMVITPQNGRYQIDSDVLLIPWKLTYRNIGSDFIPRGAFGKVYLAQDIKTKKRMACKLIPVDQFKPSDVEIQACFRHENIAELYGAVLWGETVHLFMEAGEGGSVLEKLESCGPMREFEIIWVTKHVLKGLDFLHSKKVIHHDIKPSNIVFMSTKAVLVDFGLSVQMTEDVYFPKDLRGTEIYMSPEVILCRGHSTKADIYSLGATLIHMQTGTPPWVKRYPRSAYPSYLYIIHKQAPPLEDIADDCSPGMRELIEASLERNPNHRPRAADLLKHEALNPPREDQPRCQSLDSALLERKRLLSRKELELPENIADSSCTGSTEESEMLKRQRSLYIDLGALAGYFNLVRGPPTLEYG
Test: not given
As to conditions: background statement; cited from earlier work.
As to `CN[C@@H]1C[C@H]2O[C@@](C)([C@@H]1OC)n1c3ccccc3c3c4c(c5c6ccccc6n2c5c31)C(=O)NC4` [staurosporine], the “inhibition of Tpl2” value was “not inhibited”.
